# Assay results reported in patent US8664203B2, “Thiazole derivatives and their use as P2Y12 receptor antagonists” (Actelion Pharmaceuticals Ltd., priority 2009, dated 2014).
# Target: T1, human P2Y12 receptor (Homo sapiens, UniProt Q9H244)
# T1 construct: expressed in transfected cells; host or cells: CHO cells
# Experiment: P2Y12 receptor binding assay
# Conditions: CHO cells with recombinant expression of the human P2Y12 receptor; tritium-labeled 2-methyl-S-ADP; RT, 2 hours
# Experimental: P2Y12 Receptor Binding Assay
# Chinese Hamster Ovary (CHO) cells with recombinant expression of the human P2Y12 receptor were cultured in 24 well cell-culture plates. Cells were washed three times with binding buffer (50 mM Tris pH 7.4, 100 mM NaCl, 1 mM EDTA, 0.5% BSA). The cells were then incubated with 0.5 ml per well binding buffer containing tritium-labeled 2-methyl-thio-adenosine 5′-diphosphate (2-methyl-S-ADP) (between 100′000 and 300′000 dpm per well) and various concentrations of test compounds. After incubation at RT for 2 hours, cells were washed three times with binding buffer. Then, cells were solubilized by addition of 0.5 ml solubilization buffer (SDS, NaOH, EDTA). The content of each well was then transferred into beta-counter vials and 2.0 ml of Ultima Gold Scintillation liquid was added.
# T1 sequence (Q9H244 whole entry): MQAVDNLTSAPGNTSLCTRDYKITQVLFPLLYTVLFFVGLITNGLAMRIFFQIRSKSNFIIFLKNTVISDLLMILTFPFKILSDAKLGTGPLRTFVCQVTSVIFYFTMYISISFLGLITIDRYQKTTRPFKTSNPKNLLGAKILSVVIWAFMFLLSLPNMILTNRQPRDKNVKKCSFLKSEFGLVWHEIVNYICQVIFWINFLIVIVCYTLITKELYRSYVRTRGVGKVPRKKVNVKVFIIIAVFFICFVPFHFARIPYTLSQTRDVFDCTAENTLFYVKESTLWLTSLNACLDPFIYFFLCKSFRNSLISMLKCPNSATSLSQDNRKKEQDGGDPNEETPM
row,SMILES,IC50
1,"CCCCOC(=O)N1CCN(C(=O)CNC(=O)c2nc(-c3ccccc3)c(/C=C/C(=O)OCC)s2)CC1 [Example 53, 4-(2-{[5-((E)-2-Ethoxycarbonyl-vinyl)-4-phenyl-thiazole-2-carbonyl]-amino}-acetyl)-piperazine-1-carboxylic acid butyl ester]",513 nM
2,"CCCCOC(=O)N1CCN(C(=O)[C@H](CCC(=O)O)NC(=O)c2nc(-c3ccccc3)c(Br)s2)CC1 [Example 56, 4-{(S)-2-[(5-Bromo-4-phenyl-thiazole-2-carbonyl)-amino]-4-carboxy-butyryl}-piperazine-1-carboxylic acid butyl ester]",45 nM
3,"CCCCOC(=O)N1CCN(C(=O)[C@H](CP(=O)(OCOC(C)=O)OCOC(C)=O)NC(=O)c2csc(-c3ccccc3)n2)CC1 [Example 57, 4-{(R)-3-[Bis-(acetoxymethoxy)-phosphoryl]-2-[(2-phenyl-thiazole-4-carbonyl)-amino]-propionyl}-piperazine-1-carboxylic acid butyl ester]",5 nM
4,"CCCCOC(=O)N1CCN(C(=O)[C@H](CP(=O)(N[C@@H](C)C(=O)OCC)N[C@@H](C)C(=O)OCC)NC(=O)c2csc(-c3ccccc3)n2)CC1 [Example 58, N,N′-Bis-((S)-1-Ethoxycarbonylethyl)-(R)-2-[(2-phenyl-thiazole-4-carbonyl)-amino]-3-oxo-3-(4-butoxy-carbonyl-piperazin-1-yl)-propyl-phosphonic acid diamide]",1220 nM
5,"CCCCOC(=O)N1CCN(C(=O)[C@H](CP(=O)(OCOC(=O)OCC)OCOC(=O)OCC)NC(=O)c2csc(-c3ccccc3)n2)CC1 [Example 59, 4-{(R)-3-[Bis-(ethoxycarbonyloxymethoxy)-phosphoryl]-2-[(2-phenyl-thiazole-4-carbonyl)-amino]-propionyl}-piperazine-1-carboxylic acid butyl ester]",15 nM
6,"CCCCOC(=O)N1CCN(C(=O)CNC(=O)c2nc(-c3ccccc3)sc2NCCC(=O)O)CC1 [Example 61, 4-(2-{[5-(2-Carboxy-ethylamino)-2-phenyl-thiazole-4-carbonyl]-amino}-acetyl)-piperazine-1-carboxylic acid butyl ester]",71 nM
7,"CCCCOC(=O)N1CCN(C(=O)CNC(=O)c2nc(-c3ccccc3)sc2NCCC(=O)OCC)CC1 [Example 62, 4-(2-{[5-(2-Ethoxycarbonyl-ethylamino)-2-phenyl-thiazole-4-carbonyl]-amino}-acetyl)-piperazine-1-carboxylic acid butyl ester]",134 nM

# Further lines, results first:
row,IC50,SMILES
1,743 nM,"CCCCOC(=O)N1CCN(C(=O)CNC(=O)c2nc(-c3ccccc3)c(CCCOC)s2)CC1 [Example 52, 4-(2-{[5-(3-Methoxy-propyl)-4-phenyl-thiazole-2-carbonyl]-amino}-acetyl)-piperazine-1-carboxylic acid butyl ester]"
2,547 nM,"CCCCOC(=O)N1CCN(C(=O)CNC(=O)c2nc(-c3ccccc3)c(CCC(=O)OC)s2)CC1 [Example 54, 4-(2-{[5-(2-Methoxycarbonyl-ethyl)-4-phenyl-thiazole-2-carbonyl]-amino}-acetyl)-piperazine-1-carboxylic acid butyl ester]"
3,314 nM,"CCCCOC(=O)N1CCN(C(=O)CNC(=O)c2nc(-c3ccccc3)c(CCC(=O)O)s2)CC1 [Example 55, 4-(2-{[5-(2-Carboxy-ethyl)-4-phenyl-thiazole-2-carbonyl]-amino}-acetyl)-piperazine-1-carboxylic acid butyl ester]"
4,1560 nM,"CCCCCCN(C)c1sc(C(=O)NCC(=O)N2CCN(C(=O)OCCCC)CC2)nc1-c1ccccc1 [Example 60, 4-(2-{[5-(Hexyl-methyl-amino)-4-phenyl-thiazole-2-carbonyl]-amino}-acetyl)-piperazine-1-carboxylic acid butyl ester]"
